# Results taken from patent publication US8207211B2, “Photosensitizers for targeted photodynamic therapy” (The General Hospital Corporation, priority 2005, dated 2012).
# Assays:
# [1] = tested on: L929 murine fibroblast line; assay: Mammalian cell toxicity, MTT viability assay after illumination; type: cell-based, mouse
# From the text: Experiments to test the effect of functionalized fullerenes on mammalian cells can be performed in a suitable mammalian cell line. One such cell line is the L929 murine fibroblast line (ATCC #CCL1), a spontaneously transformed immortalized cell line established from the normal subcutaneous areolar and adipose tissue of a male C3H/An mouse (Earle, W. R., Schilling, E. L., Stark, T. H., Straus, N. P., Brown, M. F., and Shelton, E. (1943). Production of malignancy in vitro. IV. The mouse fibroblast cultures and changes seen in the living cells. J. Natl. Cancer Inst. 4, 165-212). In a suitable assay, these cells were cultured in Dulbecco's modified Eagle's medium (Sigma) at 37° C. in a humidified atmosphere containing 5% CO2. The medium is preferably modified by using 4 mM L-glutamine (containing 1.5 g/l sodium bicarbonate and 4.5 g/l glucose), 10% fetal bovine serum (FBS), 100 U/ml penicillin, and […] streptomycin. Cells were plated in 96-well cell culture plates, at a density of about 300 cells/well, and are allowed to attach for 24 hr.
# Fullerenes and other PS, e.g., TBO, were added at a concentration of about 10 μM in 200 μl complete medium per well. After 10 min, fresh medium is added, and the cultures were illuminated with white light (for fullerenes) or with red light (for TBO). At the completion of the illumination period, cells were returned to the incubator for 24 hr. Cell viability can be determined, for example, by using the MTT-microculture tetrazolium assay, a method of assessing cellular response to PDT (Merlin, J. L., Azzi, S., Lignon, D., Ramacci, C., Zeghari, N., and Guillemin, F. (1992). MTT assays allow quick and reliable measurement of the response of human tumour cells to photodynamic therapy. Eur. J. Cancer 28A, 1452-1458. This assay involves the reduction of a colorless substrate, i.e., 3-[4,5-Dimethylthiazol-2-yl]-diphenyltetrazolium bromide (Sigma, St. Louis, […].) to an insoluble dark-blue formazan product which is formed in proportion to the amount of succinate dehydrogenase activity in the mitochondria of living cells. After incubation with MTT for periods ranging from 4 to 8 hr, the medium was aspirated from each well, and […] DMSO is added. The absorbance at 570 nm was read by a microplate reader, e.g., a Spectra Max™ 340 PC (Molecular Devices, Sunnyvale, Calif.). The fraction of cells surviving was calculated by dividing the mean absorbances of formazan produced from PDT-treated cells by the mean absorbances from dark controls incubated with PS and kept at room temperature for periods of time equal to the irradiation times.
# [2] = tested on: S. aureus; assay: Photodynamic inactivation (PDI), CFU survival, 405-nm light (Example 8); type: cell-based, Staphylococcus aureus
# From the text: (§1) Four microbial species were used in this study. Briefly, Escherichia coli was purchased from ATCC (ATCC #25922), Pseudomonas aeruginosa, two clinical isolates, were obtained; UCBP PA 14 from L. Rahme (Massachusetts General Hospital) and PA 767K from Kim Lewis (Tufts University), slime deficient mutant of Staphylococcus aureus was obtained from Gerald B Pier (Channing Laboratories). Yeast strain Candida albicans was purchased from ATCC (ATCC #18804). Exponential cultures obtained by reculturing stationary overnight cultures were used for all experiments. Bacteria were grown at 37° C. in BHI broth to a cell density of 10^8 cells per mL. C. albicans was grown 37° C. in YM medium to 10^7 cells/mL.
# (§2) Six fullerene derivatives (NI1-3 and CI1-3) were evaluated. […] Concentration of fullerene derivatives used in the experiments varied between 1 and 100 μM.
# Fullerene derivatives were mixed with microbial suspensions and incubated in the dark at room temperature for 10 minutes. Excess fullerenes were either washed out of, or left in, the suspensions before illumination. Aliquots of 100 μL were placed on three well hanging drop slides and illuminated with either a 405-nm laser (Nichia Chemical Industries) at an irradiance of 100 mW/cm^2, or with white light at room temperature. White light was 400-700 nm Gaussian distribution from LumaCare™ lamp with filtered liquid light guide, as described above.
# During illumination, aliquots of 20 μL were taken to determine the colony-forming units. The contents of the wells were mixed before sampling. The aliquots were serially diluted 10-fold in PBS without Ca^++/Mg^++ to give dilutions of 10^−1−10^−6 times the original concentrations, and were streaked horizontally on square BHI agar plates. Plates were incubated at 37° C. overnight. Colonies were counted and survival fraction was determined as percent of survival compared to control. Microbial suspensions incubated with fullerene derivatives in DMSO in the absence of light and bacteria illuminated in the absence of fullerene derivatives were used as controls. […]
# [3] = tested on: C. albicans; assay: as above; type: cell-based, Candida albicans; conditions: 10-20 μM, 16 J/cm^2 of 405-nm light
# From the text: as §1, §2
# Fullerene derivatives were mixed with microbial suspensions and incubated in the dark at room temperature for 10 minutes. Excess fullerenes were either washed out of, or left in, the suspensions before illumination. […]
# During illumination, aliquots of 20 μL were taken to determine the colony-forming units. […] Colonies were counted and survival fraction was determined as percent of survival compared to control. […]
# [4] = Octanol-water distribution coefficient; type: physicochemical; conditions: 1-octanol/DI water, absorbance at 330 nm
# Method: Each compound was dissolved in a minimum amount of DMSO: CI1 (0.9 mg in 200 μl), CI2 (5.3 mg in 200 μl), CI3 (5.4 mg in 200 μl). Ten ml of DI water and 10 ml of 1-octanol were added in each compound and vigorously shaken for 2 min. and the vials of the compounds were settled down overnight. The phases were separated and UV-spectra of each phase were analyzed. Distribution coefficient of each compound was determined using absorbance of aqueous phases and organic phases at 330 nm.
# [5] = tested on: S. aureus; assay: Photodynamic inactivation (PDI), CFU survival, white light (red light for TBO); type: cell-based, Staphylococcus aureus; conditions: 1 μM
smiles,measurement,setting,value
C[N+]1(C)Cc2c(c3c4ccc5c6ccc7c8ccc9c%10c%11c%12c(c2c2c3c3c4c5c4c6c7c5c8c9c%11c6c(c%122)c3c4c56)C2C[N+](C)(C)CC%102)C1 (stereo not shown) [CI2],toxicity to L929 mammalian cells at fluences used for PDI of pathogens,"[1]; 10 μM, 10 min, white light up to 50 J/cm^2",not killed
same,toxicity to mammalian cells at high fluences relative to TBO,"[1]; L929, high fluences",considerably less toxic
same,PDI of S. aureus,"[2]; 100 μM, 10 min, 405 nm light 0-200 J/cm^2",most potent
same,killing of S. aureus,"[2]; 1-μM, 8 J/cm^2, 405 nm light",6 logs
same,potency relative to the other fullerene derivatives,"[2]; S. aureus, 1 μM and 8 J/cm^2 versus 100 μM screen",approximately 1000 times
same,killing of C. albicans,[3],high levels of killing
same,Kow (octanol-water partition constant),[4],1.28
same,LogKow,[4],0.11
same,PDT activity against S. aureus,"[5]; 10 min, white light up to 50 J/cm^2",effectively killed
same,light sufficient to kill 4-5 logs of S. aureus,"[5]; with a wash, white light",2 J/cm^2
